From patent US7589220B2, “Inhibitors of the anandamide transporter” (priority 1998, dated 2009)
Where two headings read alike, the source gives them in different places.

Key:
anandamide transporter [1] = experiment: [3H]anandamide competition assay using a high throughput method; type: cell-based, human
rat cerebral membranes = target: T1, rat cerebral membranes (Rattus norvegicus, UniProt P20272); experiment: binding of [3H]WIN-55212-2 to rat cerebral membranes
T1 construct: from tissue; host or cells: rat cerebral membranes
T1 sequence (P20272 whole entry): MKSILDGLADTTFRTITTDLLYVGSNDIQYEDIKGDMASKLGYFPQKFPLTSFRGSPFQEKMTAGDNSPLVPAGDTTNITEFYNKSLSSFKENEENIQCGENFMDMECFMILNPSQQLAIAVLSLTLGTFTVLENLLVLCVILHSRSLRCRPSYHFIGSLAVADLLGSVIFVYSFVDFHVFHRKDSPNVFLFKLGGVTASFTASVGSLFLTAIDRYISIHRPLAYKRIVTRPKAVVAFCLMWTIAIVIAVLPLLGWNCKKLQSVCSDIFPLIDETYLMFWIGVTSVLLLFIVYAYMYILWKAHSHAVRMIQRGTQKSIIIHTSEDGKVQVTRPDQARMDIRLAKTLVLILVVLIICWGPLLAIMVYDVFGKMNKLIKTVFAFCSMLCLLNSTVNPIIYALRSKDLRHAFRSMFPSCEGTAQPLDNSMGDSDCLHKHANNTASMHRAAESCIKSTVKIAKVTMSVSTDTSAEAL

astrocytes [2] = experiment: uptake of [3H]arachidonate in astrocytes; type: cell-based
astrocytes [3] = experiment: uptake of [3H]ethanolamine in astrocytes; type: cell-based
anandamide transporter [4] = experiment: [3H]anandamide accumulation in neurons; type: cell-based, rat
anandamide transporter [5] = experiment: substrate translocation of radioactively labeled analogs (FIGS. 1 and 2); type: cell-based; parameters: dose or concentration left out as unconfirmed; conditions: radioactively labeled compounds
anandamide transporter [6] = experiment: [3H]anandamide accumulation in cortical astrocytes in culture; type: cell-based, rat; conditions: for prevention of the temperature-sensitive component of [3H]anandamide accumulation: cortical astrocytes in culture; for effect on [3H]anandamide accumulation: cortical astrocytes
PGE2 carrier = experiment: [3H]PGE2 accumulation in neurons or astrocytes; type: cell-based
Source text: The bromcresol green, which blocks PGE2 transport, raised the question of whether anandamide accumulation occurred by means of a PGE2 carrier. That this is not the case was shown by the lack of [^3H]PGE2 accumulation in neurons or astrocytes and by the inability of PGE2 to interfere with [^3H]anandamide accumulation.

[7] = read-out: IC50 (AT inhib.) μM), Table II, anandamide transporter inhibition
[8] = Table I, affinity for ligand recognition by the anandamide transporter
[9] = astrocytes, single high-affinity component
[10] = Table II, anandamide transporter inhibition, read-out: IC50 (AT inhib.) μM)

Work on CCCCCC=CCC=CCC=CCC=CCCCCOC(=O)NCC(C)O (centres unmarked) [Compound 3] yielded an IC50 (anandamide transporter [1]; [7]) of 1.5 µM.
In the case of Cc1c(C2(c3cc(Br)c(O)c(Br)c3C)OS(=O)(=O)c3ccccc32)cc(Br)c(O)c1Br [bromcresol green], the “effect on the binding of [3H]WIN-55212-2” value (rat cerebral membranes) is reported as “no significant effect”, the “effect on uptake of [3H]arachidonate” value (astrocytes [2]) is reported as “no significant effect” and the “effect on uptake of [3H]ethanolamine” value (astrocytes [3]) is reported as “no significant effect”. The “mode of inhibition of [3H]anandamide accumulation” value (anandamide transporter [4]; neurons and astrocytes) was “noncompetitively”.
In the case of CCCCC/C=C\C/C=C\C/C=C\C/C=C\CCCCNC(=O)C(C)C [AM1177], the “transport (translocation) compared with [3H]anandamide” value (anandamide transporter [5]) is reported as “transported as rapidly and effectively as” and the IC50 (anandamide transporter [1]; [8]) is reported as 5 µM.
CCCCC/C=C\C/C=C\C/C=C\C/C=C\CCCC(=O)NCCO [anandamide, Arachidonyl ethanolamide] was tested, and the “time to reach 50% of maximum accumulation” value (anandamide transporter [4]; neurons and astrocytes) was “about four”, the Vmax (anandamide transporter [4]; neurons, higher affinity component) was 5.9 pmol/min per milligram of protein and the Km (anandamide transporter [4]; neurons, higher affinity component, read-out: Km) was 0.032 µM. The “maximum accumulation rate, Vmax” value (anandamide transporter [4]; neurons, lower affinity component) was 90.9 pmol/min per milligram of protein, the Km (anandamide transporter [4]; neurons, lower affinity component, read-out: Michaelis constant, Km) was 1.2 µM and the Km (anandamide transporter [6]; [9]) was 0.32 µM. The Vmax (anandamide transporter [6]; [9]) was 171 pmol/min per milligram of protein and the “prevention of the temperature-sensitive component of [3H]anandamide accumulation” value (anandamide transporter [6]) was “prevented”.
In the case of CCCCC/C=C\C/C=C\C/C=C\C/C=C\CCCC(=O)Nc1ccc(O)cc1 [AM404, N-(4-hydroxyphenyl)arachidonamide, reference compound], the “transport (translocation) compared with [3H]anandamide” value (anandamide transporter [5]) is reported as “transported as rapidly and effectively as”.
CCCCCC=CCC=CCC=CCC=CCCCCOC(=O)NCC(C)O (centres unmarked) [Compound 4] gave an IC50 (anandamide transporter [1]; [7]) of 0.4 µM.
CCCCCC=CCC=CCC=CCC=CCCCCOC(=O)NC1CCC1 [Compound 7] showed an IC50 (anandamide transporter [1]; [7]) of 15.5 µM.
CCCCCC=CCC=CCC=CCC=CCCCCNC(=O)NCC(C)O (centres unmarked) [Compound 12] showed an IC50 (anandamide transporter [1]; [7]) of 1.78 µM.
Work on CCCCC/C=C\C/C=C\C/C=C\C/C=C\CCCC(=O)Nc1nccs1 [Compound 17] yielded an IC50 (anandamide transporter [1]; [10]) of 1.7 µM.
Work on CCCCCC=CCC=CCC=CCC=CCCCCOC(=O)Nc1cccnc1 [Compound 11] yielded an IC50 (anandamide transporter [1]; [7]) of 16.1 µM.
Cc1c(C(=O)NN2CCCCC2)nn(-c2ccc(Cl)cc2Cl)c1-c1ccc(Cl)cc1.Cl [SR-141716-A] was tested, and the “displacement of the higher affinity component of [3H]anandamide accumulation” value (anandamide transporter [4]; neurons, 100 nM) was “displaced” and the “effect on [3H]anandamide accumulation” value (anandamide transporter [6]; 10 μM) was “no effect”.
In the case of Cc1c(C(=O)c2cccc3ccccc23)c2cccc3c2n1[C@H](CN1CCOCC1)CO3 [WIN-55212-2], the “effect on [3H]anandamide accumulation” value (anandamide transporter [6]; 1 μM) is reported as “no effect”.
In the case of CCCCCC=CCC=CCC=CCC=CCCCCOC(=O)NC1=NCCS1 [Compound 10], the IC50 (anandamide transporter [1]; [10]) is reported as 8.6 µM.
CCCCC/C=C\C/C=C\C/C=C\C/C=C\CCCC(=O)Nc1nc(C)cs1 [Compound 23] gave an IC50 (anandamide transporter [1]; [10]) of 11.2 µM.
Compound CCCCC/C=C\C/C=C\C/C=C\C/C=C\CCCC(=O)Nc1nncs1 [Compound 19] has an IC50 (anandamide transporter [1]; [10]) of 1.5 µM.
With CCCCC/C=C\C/C=C\C/C=C\C/C=C\CCCC(=O)Nc1nc(C(C)(C)C)cs1 [Compound 25] the IC50 (anandamide transporter [1]; [10]) was 24.1 µM.
With CCCCCCCCCCCCCCCC(=O)NCCO [palmitoyl ethanolamide] the “prevention of the temperature-sensitive component of [3H]anandamide accumulation” value (anandamide transporter [6]) was “not”.
Compound CCCCC/C=C\C/C=C\C/C=C\C/C=C\CCCC(=O)Nc1nc2ccccc2s1 [Compound 20] has an IC50 (anandamide transporter [1]; [10]) of 44.2 µM.
Compound CCCCC/C=C\C/C=C\C/C=C\C/C=C\CCCC(=O)Nc1ncc([N+](=O)[O-])s1 [Compound 22] has an IC50 (anandamide transporter [1]; [10]) of 14.1 µM.
For CCCCC/C=C\C/C=C\C/C=C\C/C=C\CCCC(=O)OC1COC(c2ccccc2)OC1 (centres unmarked) [AM1191], the “transport (translocation) compared with [3H]anandamide” value (anandamide transporter [5]) was “transported as rapidly and effectively as” and the IC50 (anandamide transporter [1]; [8]) was 0.8 µM.
Compound CCCCCC=CCC=CCC=CCC=CCCCCNC(=O)OCC(C)O (centres unmarked) [Compound 16] has an IC50 (anandamide transporter [1]; [7]) of 3.29 µM.
CCCCC/C=C\C/C=C\C/C=C\C/C=C\CCCC(=O)Nc1nc(Br)cs1 [Compound 21] gave an IC50 (anandamide transporter [1]; [10]) of 92.3 µM.
For CCCCC/C=C\C/C=C\C/C=C\C/C=C\CCCNC(=O)c1ccc(O)cc1 [AM1172], the “transport (translocation) compared with [3H]anandamide” value (anandamide transporter [5]) was “transported as rapidly and effectively as” and the IC50 (anandamide transporter [1]; [8]) was 2 µM.
For CCCCC/C=C\C/C=C\C/C=C\C/C=C\CCCC(=O)NC1=NCCS1 [Compound 18], the IC50 (anandamide transporter [1]; [10]) was 2.8 µM.
CCCCCC=CCC=CCC=CCC=CCCCCOC(=O)NC(C)CO (centres unmarked) [Compound 1] showed an IC50 (anandamide transporter [1]; [7]) of 7.1 µM.
For CCCCCC=CCC=CCC=CCC=CCCCCOC(=O)NC1CCCCC1 [Compound 8], the IC50 (anandamide transporter [1]; [7]) was 33 µM.
Work on CCCCCC=CCC=CCC=CCC=CCCCCOC(=O)NC1CC1 [Compound 6] yielded an IC50 (anandamide transporter [1]; [7]) of 15.5 µM.
With CCCCCC=CCC=CCC=CCC=CCCCCOC(=O)NC(C)C [Compound 5] the IC50 (anandamide transporter [1]; [7]) was 21.9 µM.
Work on CCCCCC=CCC=CCC=CCC=CCCCCOC(=O)NC(C)CO (centres unmarked) [Compound 2] yielded an IC50 (anandamide transporter [1]; [7]) of 6.4 µM.
CCCCC/C=C\C/C=C\C/C=C\C/C=C\CCCC(=O)Nc1nc(C)c(C)s1 [Compound 24] was tested, and the IC50 (anandamide transporter [1]; [10]) was 26 µM.
With CCCCC[C@H](O)/C=C/[C@H]1[C@H](O)CC(=O)[C@@H]1C/C=C\CCCC(=O)O [PGE2, prostaglandin E2] the “accumulation of [3H]PGE2” value (PGE2 carrier) was “lack” and the “interference with [3H]anandamide accumulation” value (anandamide transporter [6]) was “inability”.
In the case of CCCCCC=CCC=CCC=CCC=CCCCCOC(=O)Nc1ccc(O)cc1 [Compound 9], the IC50 (anandamide transporter [1]; [7]) is reported as 6.6 µM.
